From patent US20100285115A1, “Novel Antiretroviral Combination” (CIPLA LIMITED, priority 2007, published 2010)

Tests used:
[1] = Stability study of Atazanavir and Ritonavir tablet; format: physicochemical
From the text: Stability study data of Atazanavir and Ritonavir tablet: [table]

[2] = manufactured in solid dosage form such as tablet; U.S. Pat. No. 6,458,818; cited from earlier work

CC(C)c1nc(CN(C)C(=O)N[C@H](C(=O)N[C@@H](Cc2ccccc2)C[C@H](O)[C@H](Cc2ccccc2)NC(=O)OCc2cncs2)C(C)C)cs1 [Ritonavir]
Assay (%) (Limit 90-110% of Labelled amount) ([1]; 25° C./60% RH, 2 M): 99.3% | Assay (%) (Limit 90-110% of Labelled amount) ([1]; 40° C./75% RH, 2 M): 96% | Assay (%) (Limit 90-110% of Labelled amount) ([1]; Initial): 99.5% | oral bioavailability [2]: poor

COC(=O)N[C@H](C(=O)N[C@@H](Cc1ccccc1)[C@@H](O)CN(Cc1ccc(-c2ccccn2)cc1)NC(=O)[C@@H](NC(=O)OC)C(C)(C)C)C(C)(C)C [Atazanavir]
Assay (%) (Limit 90-110% of Labelled amount) ([1]; 25° C./60% RH, 2 M): 99.0% | Assay (%) (Limit 90-110% of Labelled amount) ([1]; 40° C./75% RH, 2 M): 98% | Assay (%) (Limit 90-110% of Labelled amount) ([1]; Initial): 100.3%
